Measured values as given in patent publication US20220274945A1, “SUBSTITUTED THIOPHENE CARBOXAMIDES AND DERIVATIVES THEREOF AS MICROBICIDES” (Bayer Aktiengesellschaft, priority 2019, published 2022).

System: Xanthomonas campestris pv. campestris
Assay: Xanthomonas campestris pv. campestris in vitro cell test
Type: cell-based
Conditions: 20 ppm of active ingredient, liquid culture, 24 h incubation, read-out: efficacy (inhibition of bacteria growth)
Method: (§1) • Solvent: DMSO • Culture medium: LB broth medium (Luria Broth Miller) Sigma • Inoculum: bacteria suspension Compounds were solubilized in DMSO and the solution used to prepare the required range of concentrations. The final concentration of DMSO used in the assay was 10%. Inoculum was prepared from a pre-culture of bacteria grown in liquid medium and diluted to the desired optical density (OD). Compounds were evaluated for their ability to inhibit bacteria growth in liquid culture assay. The compounds were added in the desired concentrations to culture medium containing the bacteria suspension. After 24 h of incubation, the efficacy of compounds was determined by spectrometric measurement of bacteria growth. Inhibition was determined by comparing the absorbance values in wells containing the compounds with the absorbance in control wells without active ingredients.

Compound | inhibition at 20 ppm
CCOC(=O)C1(NC(=O)c2sc(Br)c(Br)c2F)CC1 [I.01, ethyl 1-{[(4,5-dibromo-3-fluoro-2-thienyl)carbonyl]amino}cyclopropanecarboxylate] | ≤ 30%
CCOC(=O)C1(NC(=O)c2sc(Cl)c(Cl)c2Br)CC1 [I.03, Ethyl 1-{[(3-bromo-4,5-dichloro-2-thienyl)carbonyl]amino}cyclopropanecarboxylate] | ≤ 30%
O=C(NC1(C(=O)O)CC1)c1sc(Cl)c(Cl)c1Br [I.15, 1-{[(3-bromo-4,5-dichloro-2-thienyl)carbonyl]amino}cyclopropanecarboxylic Acid] | ≤ 30%

System: Pseudomonas syringae pv. tomato
Assay: Pseudomonas syringae pv. tomato in vitro cell test
Type: cell-based
Conditions: 20 ppm of active ingredient, liquid culture, 24 h incubation, read-out: efficacy (inhibition of bacteria growth)
Method: as §1, with “suspension Compounds to be tested were solubilized” for “suspension Compounds were solubilized”, “assay was ≤1%. Inoculum was” for “assay was 10%. Inoculum was”, “wells without compounds.” for “wells without active ingredients.”

Compound | inhibition at 20 ppm
CCOC(=O)C1(NC(=O)c2sc(Br)c(Br)c2F)CC1 [I.01, ethyl 1-{[(4,5-dibromo-3-fluoro-2-thienyl)carbonyl]amino}cyclopropanecarboxylate] | ≤ 30%
CCOC(=O)C1(NC(=O)c2sc(Cl)c(Cl)c2Br)CC1 [I.03, Ethyl 1-{[(3-bromo-4,5-dichloro-2-thienyl)carbonyl]amino}cyclopropanecarboxylate] | ≤ 30%
O=C(NC1(C(=O)O)CC1)c1sc(Cl)c(Cl)c1Br [I.15, 1-{[(3-bromo-4,5-dichloro-2-thienyl)carbonyl]amino}cyclopropanecarboxylic Acid] | ≤ 30%

System: not listed separately
Assay: Log P by HPLC on reversed phase columns (EEC directive 79/831 Annex V.A8)
Type: physicochemical
Conditions: not given
Method: In the above tables, measurement of Log P values was performed according to EEC directive 79/831 Annex V.A8 by HPLC (High Performance Liquid Chromatography) on reversed phase columns with the following methods: [^a] […] If more than one Log P value is available within the same method, all the values are given and separated by “+”. Calibration was done with straight-chain alkan2-ones (with 3 to 16 carbon atoms) with known Log P values (measurement of Log P values using retention times with linear interpolation between successive alkanones). Lambda-max-values were determined using UV-spectra from 200 nm to 400 nm and the peak values of the chromatographic signals.

Compound | LogP
O=C(NC1(C(=O)OC2CCCC2)CC1)c1sc(Br)c(Br)c1F [I.18] | 3.99^[a]
CC(C)(C)OC(=O)C1(NC(=O)c2sc(Br)c(Br)c2F)CC1 [I.19] | 3.91^[a]
CCCCOC(=O)C1(NC(=O)c2sc(Cl)c(Cl)c2Br)CC1 [I.29] | 4.34^[a]
CCCOC(=O)C1(NC(=O)c2sc(Cl)c(Cl)c2Br)CC1 [I.31] | 3.89^[a]
CC(C)OC(=O)C1(NC(=O)c2sc(Cl)c(Cl)c2Br)CC1 [I.32] | 3.86^[a]
O=C(NC1(C(=O)OC2CCC2)CC1)c1sc(Br)c(Br)c1I [I.35] | 3.99^[a]
CCCOC(=O)C1(NC(=O)c2sc(Br)c(Br)c2F)CC1 [I.37] | 3.54^[a]
O=C(NC1(C(=O)OC2CCC2)CC1)c1sc(Br)c(Br)c1Br [I.38] | 4.10^[a]
CCCOC(=O)C1(NC(=O)c2sc(Br)c(Br)c2Br)CC1 [I.39] | 3.92^[a]
CCOC(=O)C1(NC(=O)c2sc(Cl)c(Cl)c2F)CC1 [I.44] | 3.05^[a]
O=C(NC1(C(=O)OCC2CC2)CC1)c1sc(Cl)c(Cl)c1Br [I.46] | 4.05^[a]
C=CCOC(=O)C1(NC(=O)c2sc(Br)c(Br)c2Br)CC1 [I.48] | 3.77^[a]
CC(C)(C)OC(=O)C1(NC(=O)c2sc(Br)c(Br)c2Br)CC1 [I.49] | 4.40^[a]
CC(C)COC(=O)C1(NC(=O)c2sc(Br)c(Br)c2Br)CC1 [I.56] | 4.40^[a]
O=C(NC1(C(=O)OC2CCCC2)CC1)c1sc(Br)c(Br)c1I [I.59] | 4.37^[a]
O=C(NC1(C(=O)OCC(F)(F)F)CC1)c1sc(Cl)c(Cl)c1Br [I.64] | 3.91^[a]
C[Si](C)(C)COC(=O)C1(NC(=O)c2sc(Cl)c(Cl)c2Br)CC1 [I.65] | 5.00^[a]
O=C(NC1(C(=O)Oc2ccccc2)CC1)c1sc(Cl)c(Cl)c1Br [I.66] | 4.19^[a]
O=C(NC1(C(=O)OC2CCOCC2)CC1)c1sc(Br)c(Br)c1Br [I.68] | 3.26^[a]
O=C(NC1(C(=O)OC2CSC2)CC1)c1sc(Cl)c(Cl)c1Br [I.71] | 3.87^[a]
O=C(NC1(C(=O)OC2CSC2)CC1)c1sc(Br)c(Br)c1Br [I.75] | 4.85^[a]
CCOC(=O)C1(NC(=O)c2sc(Br)cc2I)CC1 [IVb.02] | 2.98^[a]
CCOC(=O)C1(NC(=O)c2sc(Br)cc2F)CC1 [IVb.03] | 2.46^[a]
CC(C)OC(=O)C1(NC(=O)c2cc(Br)c(Br)s2)CC1 [V.02] | 3.25^[a]

Further lines, results first:

LogP | Compound
2.19^[a] | O=C(NC1(C(=O)O)CC1)c1sc(Br)c(Br)c1F [I.02]
3.39^[a] | CCOC(=O)C1(NC(=O)c2sc(Cl)c(Cl)c2I)CC1 [I.04]
3.94^[a] | O=C(NC1(C(=O)OCc2ccccc2)CC1)c1sc(Br)c(Br)c1F [I.17]
3.92^[a] | CC(C)COC(=O)C1(NC(=O)c2sc(Br)c(Br)c2F)CC1 [I.20]
3.96^[a] | CCCCOC(=O)C1(NC(=O)c2sc(Br)c(Br)c2F)CC1 [I.21]
3.52^[a] | CC(C)OC(=O)C1(NC(=O)c2sc(Br)c(Br)c2F)CC1 [I.22]
3.33^[a] | C=CCOC(=O)C1(NC(=O)c2sc(Br)c(Br)c2F)CC1 [I.24]
4.28^[a] | O=C(NC1(C(=O)OCc2ccccc2)CC1)c1sc(Cl)c(Cl)c1Br [I.25]
4.37^[a] | O=C(NC1(C(=O)OC2CCCC2)CC1)c1sc(Cl)c(Cl)c1Br [I.26]
4.31^[a] | CC(C)COC(=O)C1(NC(=O)c2sc(Cl)c(Cl)c2Br)CC1 [I.28]
4.07^[a] | O=C(NC1(C(=O)OC2CCC2)CC1)c1sc(Cl)c(Cl)c1Br [I.30]
3.35^[a] | C#CCOC(=O)C1(NC(=O)c2sc(Cl)c(Cl)c2Br)CC1 [I.33]
3.66^[a] | C=CCOC(=O)C1(NC(=O)c2sc(Cl)c(Cl)c2Br)CC1 [I.34]
3.71^[a] | O=C(NC1(C(=O)OC2CCC2)CC1)c1sc(Br)c(Br)c1F [I.36]
3.91^[a] | CCCOC(=O)C1(NC(=O)c2sc(Br)c(Br)c2Cl)CC1 [I.40]
3.85^[a] | CCCOC(=O)C1(NC(=O)c2sc(Br)c(Br)c2I)CC1 [I.41]
4.17^[a] | O=C(NC1(C(=O)OC2CCC2)CC1)c1sc(Br)c(Br)c1Cl [I.42]
2.65^[a] | COC(=O)C1(NC(=O)c2sc(Cl)c(Cl)c2F)CC1 [I.45]

LogP | Compound
3.44^[a] | C#CCOC(=O)C1(NC(=O)c2sc(Br)c(Br)c2Br)CC1 [I.47]
4.37^[a] | O=C(NC1(C(=O)OCc2ccccc2)CC1)c1sc(Br)c(Br)c1Br [I.50]
3.40^[a] | C#CCOC(=O)C1(NC(=O)c2sc(Br)c(Br)c2I)CC1 [I.51]
3.71^[a] | C=CCOC(=O)C1(NC(=O)c2sc(Br)c(Br)c2I)CC1 [I.52]
4.47^[a] | O=C(NC1(C(=O)OC2CCCC2)CC1)c1sc(Br)c(Br)c1Br [I.55]
4.44^[a] | CCCCOC(=O)C1(NC(=O)c2sc(Br)c(Br)c2Br)CC1 [I.57]
3.98^[a] | CC(C)OC(=O)C1(NC(=O)c2sc(Br)c(Br)c2Br)CC1 [I.58]
3.87^[a] | CC(C)OC(=O)C1(NC(=O)c2sc(Br)c(Br)c2I)CC1 [I.62]
4.02^[a] | O=C(NC1(C(=O)OCC2CC2)CC1)c1sc(Br)c(Br)c1Br [I.67]
4.97^[a] | C[Si](C)(C)COC(=O)C1(NC(=O)c2sc(Br)c(Br)c2Br)CC1 [I.69]
3.23^[a] | O=C(NC1(C(=O)OC2CCOCC2)CC1)c1sc(Cl)c(Cl)c1Br [I.70]
3.16^[a] | N#CCOC(=O)C1(NC(=O)c2sc(Br)c(Br)c2Br)CC1 [I.72]
3.94^[a] | O=C(NC1(C(=O)OCC(F)(F)F)CC1)c1sc(Br)c(Br)c1Br [I.74]
2.84^[a] | CCOC(=O)C1(NC(=O)c2sc(Br)cc2Cl)CC1 [IVb.01]
2.92^[a] | CCOC(=O)C1(NC(=O)c2sc(Br)cc2Br)CC1 [IVb.05]
1.65^[a] | CCOC(=O)C1(NC(=O)c2sccc2F)CC1 [IVc.01]
2.90^[a] | CCOC(=O)C1(NC(=O)c2cc(Br)c(Br)s2)CC1 [V.01]
2.49^[a] | COC(=O)C1(NC(=O)c2cc(Cl)c(Cl)s2)CC1 [V.04]

Same assay, conditions: reversed phase HPLC columns, method [a]: LC-UV, acidic range, 0.1% formic acid in water and acetonitrile as eluent

chromatographic logP | Compound
3.13 | CCOC(=O)C1(NC(=O)c2sc(Br)c(Br)c2F)CC1 [I.01, ethyl 1-{[(4,5-dibromo-3-fluoro-2-thienyl)carbonyl]amino}cyclopropanecarboxylate]
2.37 | CCOC(=O)C1(NC(=O)c2scc(Br)c2F)CC1 [IVa.01, Ethyl 1-{[(4-bromo-3-fluoro-2-thienyl)carbonyl]amino}cyclopropanecarboxylate]

Compound | chromatographic logP
O=C(NC1(C(=O)O)CC1)c1sc(Cl)c(Cl)c1Br [I.15, 1-{[(3-bromo-4,5-dichloro-2-thienyl)carbonyl]amino}cyclopropanecarboxylic Acid] | 2.37

Same assay, conditions: reversed phase HPLC columns, value in the preparation example; method letter not given

chromatographic logP | Compound
3.13 | CCOC(=O)C1(NC(=O)c2sc(Br)c(Br)c2F)CC1 [I.01, ethyl 1-{[(4,5-dibromo-3-fluoro-2-thienyl)carbonyl]amino}cyclopropanecarboxylate]
2.39 | CCOC(=O)C1(NC(=O)c2scc(Br)c2F)CC1 [IVa.01, Ethyl 1-{[(4-bromo-3-fluoro-2-thienyl)carbonyl]amino}cyclopropanecarboxylate]

Compound | chromatographic logP
O=C(NC1(C(=O)O)CC1)c1sc(Cl)c(Cl)c1Br [I.15, 1-{[(3-bromo-4,5-dichloro-2-thienyl)carbonyl]amino}cyclopropanecarboxylic Acid] | 2.39

System: Botrytis cinerea
Assay: Botrytis cinerea in vitro cell test
Type: cell-based
Conditions: 120 h, 20 ppm of active ingredient, liquid culture, 5 days incubation, read-out: efficacy (inhibition of fungal growth)
Method: • Solvent: DMSO • Culture medium: 14.6 g anhydrous D-glucose (VWR), 7.1 g Mycological Peptone (Oxoid), 1.4 g granulated Yeast Extract (Merck), QSP Iliter • Inoculum: spore suspension
Fungicides were solubilized in DMSO and the solution used to prepare the required range of concentrations. The final concentration of DMSO used in the assay was ≤[…]1%.
A spore suspension of B. cinerea was prepared and diluted to the desired spore density.
Fungicides were evaluated for their ability to inhibit spore germination and mycelium growth in liquid culture assay. The compounds were added in the desired concentration to the culture medium with spores. After 5 days incubation, fungi-toxicity of compounds was determined by spectrometric measurement of mycelium growth. Inhibition of fungal growth was determined by comparing the absorbance values in wells containing the fungicides with the absorbance in control wells without fungicides.

Compound | inhibition at 20 ppm
CCOC(=O)C1(NC(=O)c2sc(Br)c(Br)c2F)CC1 [I.01, ethyl 1-{[(4,5-dibromo-3-fluoro-2-thienyl)carbonyl]amino}cyclopropanecarboxylate] | ≤ 30%
CCOC(=O)C1(NC(=O)c2sc(Cl)c(Cl)c2Br)CC1 [I.03, Ethyl 1-{[(3-bromo-4,5-dichloro-2-thienyl)carbonyl]amino}cyclopropanecarboxylate] | ≤ 30%
O=C(NC1(C(=O)O)CC1)c1sc(Cl)c(Cl)c1Br [I.15, 1-{[(3-bromo-4,5-dichloro-2-thienyl)carbonyl]amino}cyclopropanecarboxylic Acid] | ≤ 30%
